Results from patent publication US8946438B2, “Benzamides, production thereof, and use thereof as medicaments” (Boehringer Ingelheim International GmbH, priority 2008, dated 2015).

Target: p38 MAP-kinase (Homo sapiens, UniProt Q16539)
Test: Enzymatic assay: inhibition of p38 MAP-kinase (phosphorylation of GST-tagged ATF2, chemoluminescence bead readout)
Format: biochemical
Conditions: inhibitor 1 μM; activated p38 MAP-kinase 1 nM; 4 h preincubation; ATP 100 μM; ATF2 10 nM; read-out: % inhibitory effect at 1 μM
Summary of the method: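 Activated human p38 MAP-kinase (1 nM) preincubated 4 h at ambient temperature with compound at 1 μM in HEPES pH 7, MgCl2, DTT, Tween20. Then reacted 1 h with GST-ATF2 (10 nM) and ATP (100 μM). Phospho-ATF2 read by bead chemoluminescence at 520-620 nm, given as % inhibition at 1 μM versus kinase-free background.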

p38 MAP-kinase, sequence (Q16539 whole entry): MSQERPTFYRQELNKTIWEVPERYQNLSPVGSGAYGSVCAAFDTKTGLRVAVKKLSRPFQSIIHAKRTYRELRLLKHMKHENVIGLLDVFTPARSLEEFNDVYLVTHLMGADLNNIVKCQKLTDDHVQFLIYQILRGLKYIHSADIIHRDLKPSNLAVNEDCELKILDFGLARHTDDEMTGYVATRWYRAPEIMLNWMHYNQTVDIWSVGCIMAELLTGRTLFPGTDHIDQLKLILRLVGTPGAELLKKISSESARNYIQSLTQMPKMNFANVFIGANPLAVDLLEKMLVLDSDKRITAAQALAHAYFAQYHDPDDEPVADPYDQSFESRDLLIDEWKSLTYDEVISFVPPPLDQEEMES

SMILES	inhibition at 1 µM
COc1c(NC(=O)c2ccc(C)c(Oc3ccnc(CNC4CCN(C)CC4)n3)c2)cc(C(C)(C)C)cc1NS(C)(=O)=O [8(17), N-(5-tert-butyl-3-methanesulphonylamino-2-methoxy-phenyl)-4-methyl-3-{2-[(1-methyl-piperidin-4-ylamino)-methyl]-pyrimidin-4-yloxy}-benzamide]	96.7%
COc1c(NC(=O)c2ccc(C)c(Oc3ccnc(CNC4CCCN(C)C4)n3)c2)cc(C(C)(C)C)cc1NS(C)(=O)=O (stereo not drawn) [8(18), N-(5-tert-butyl-3-methanesulphonylamino-2-methoxy-phenyl)-4-methyl-3-{2-[(1-methyl-piperidin-3-ylamino)-methyl]-pyrimidin-4-yloxy}-benzamide]	98.6%
COc1c(NC(=O)c2ccc(C)c(Oc3ccnc(CN(C)C4CCN(C)C4)n3)c2)cc(C(C)(C)C)cc1NS(C)(=O)=O (stereo not drawn) [8(19), N-(5-tert-butyl-3-methanesulphonylamino-2-methoxy-phenyl)-4-methyl-3-(2-{[methyl-(1-methyl-pyrrolidin-3-yl)-amino]-methyl}-pyrimidin-4-yloxy)-benzamide]	97%
COc1c(NC(=O)c2ccc(C)c(Oc3ccnc(CN4CCCN(C)CC4)c3)c2)cc(C(C)(C)C)cc1NS(C)(=O)=O [8(20), N-(5-tert-butyl-3-methanesulphonylamino-2-methoxy-phenyl)-4-methyl-3-[2-(4-methyl-homopiperazin-1-ylmethyl)-pyridin-4-yloxy]-benzamide]	99.4%
COc1c(NC(=O)c2ccc(C)c(Oc3ccnc(CN4CC[C@H](N(C)C)C4)n3)c2)cc(C(C)(C)C)cc1NS(C)(=O)=O [8(21), (S)-N-(5-tert-butyl-3-methanesulphonylamino-2-methoxy-phenyl)-3-[2-(3-dimethylamino-pyrrolidin-1-ylmethyl)-pyrimidin-4-yloxy]-4-methyl-benzamide]	98.5%
COc1c(NC(=O)c2ccc(C)c(Oc3ccnc(CN4CC[C@@H](N(C)C)C4)n3)c2)cc(C(C)(C)C)cc1NS(C)(=O)=O [8(22), (R)-N-(5-tert-butyl-3-methanesulphonylamino-2-methoxy-phenyl)-3-[2-(3-dimethylamino-pyrrolidin-1-ylmethyl)-pyrimidin-4-yloxy]-4-methyl-benzamide]	98.3%
COc1c(NC(=O)c2ccc(C)c(Oc3ccnc(CNC4CCN(C)C4)n3)c2)cc(C(C)(C)C)cc1NS(C)(=O)=O (stereo not drawn) [8(23), N-(5-tert-butyl-3-methanesulphonylamino-2-methoxy-phenyl)-4-methyl-3-{2-[(1-methyl-pyrrolidin-3-ylamino)-methyl]-pyrimidin-4-yloxy}-benzamide]	97.8%
COc1c(NC(=O)c2ccc(C)c(Oc3ccnc(CN(C)CCN(C)C)n3)c2)cc(C(C)(C)C)cc1NS(C)(=O)=O [8(24), N-(5-tert-butyl-3-methanesulphonylamino-2-methoxy-phenyl)-3-(2-{[N-(2-dimethylamino-ethyl)-N-methyl-amino]-methyl}-pyrimidin-4-yloxy)-4-methyl-benzamide]	92.4%
COc1c(NC(=O)c2ccc(C)c(Oc3ccnc(CNCCN(C)C)n3)c2)cc(C(C)(C)C)cc1NS(C)(=O)=O [8(25), N-(5-tert-butyl-3-methanesulphonylamino-2-methoxy-phenyl)-3-{2-[(2-dimethylamino-ethylamino)-methyl]-pyrimidin-4-yloxy}-4-methyl-benzamide]	98.6%
COc1c(NC(=O)c2ccc(C)c(Oc3ccnc(CN(C)CCN(C)C)c3)c2)cc(C(C)(C)C)cc1NS(C)(=O)=O [8(26), N-(5-tert-butyl-3-methanesulphonylamino-2-methoxy-phenyl)-3-(2-{[(2-dimethylamino-ethyl)-methyl-amino]-methyl}-pyridin-4-yloxy)-4-methyl-benzamide]	97.7%
COc1c(NC(=O)c2ccc(C)c(Oc3ccnc(CNCCN(C)C)c3)c2)cc(C(C)(C)C)cc1NS(C)(=O)=O [8(27), N-(5-tert-butyl-3-methanesulphonylamino-2-methoxy-phenyl)-3-{2-[(2-dimethylamino-ethylamino)-methyl]-pyridin-4-yloxy}-4-methyl-benzamide]	98.4%
COc1c(NC(=O)c2cc(C)cc(Oc3ccnc(CN4CCN(C)CC4)n3)c2)cc(C(C)(C)C)cc1NS(C)(=O)=O [8(28), N-(5-tert-butyl-3-methanesulphonylamino-2-methoxy-phenyl)-3-methyl-5-[2-(4-methyl-piperazin-1-ylmethyl)-pyrimidin-4-yloxy]-benzamide]	81.8%
COc1c(NC(=O)c2ccc(C)c(Oc3cc(CNCCN(C)C)ncn3)c2)cc(C(C)(C)C)cc1NS(C)(=O)=O [8(29), N-(5-tert-butyl-3-methanesulphonylamino-2-methoxy-phenyl)-3-{6-[(2-dimethylamino-ethylamino)-methyl]-pyrimidin-4-yloxy}-4-methyl-benzamide]	89%
COc1c(NC(=O)c2ccc(C)c(Oc3cc(CN(C)CCN(C)C)ncn3)c2)cc(C(C)(C)C)cc1NS(C)(=O)=O [8(30), N-(5-tert-butyl-3-methanesulphonylamino-2-methoxy-phenyl)-3-(6-{[(2-dimethylamino-ethyl)-methyl-amino]-methyl}-pyrimidin-4-yloxy)-4-methyl-benzamide]	91.3%
COc1c(NC(=O)c2ccc(Cl)c(Oc3cc(CNCCN(C)C)ncn3)c2)cc(C(C)(C)C)cc1NS(C)(=O)=O [8(31), N-(5-tert-butyl-3-methanesulphonylamino-2-methoxy-phenyl)-4-chloro-3-{6-[(2-dimethylamino-ethylamino)-methyl]-pyrimidin-4-yloxy}-benzamide]	86.5%
COc1c(NC(=O)c2ccc(Cl)c(Oc3cc(CN(C)CCN(C)C)ncn3)c2)cc(C(C)(C)C)cc1NS(C)(=O)=O [8(32), N-(5-tert-butyl-3-methanesulphonylamino-2-methoxy-phenyl)-4-chloro-3-(6-{[(2-dimethylamino-ethyl)-methyl-amino]-methyl}-pyrimidin-4-yloxy)-benzamide]	92.6%
COc1c(NC(=O)c2ccc(Cl)c(Oc3ccnc(CN(C)CCN(C)C)c3)c2)cc(C(C)(C)C)cc1NS(C)(=O)=O [8(33), N-(5-tert-butyl-3-methanesulphonylamino-2-methoxy-phenyl)-4-chloro-3-(2-{[(2-dimethylamino-ethyl)-methyl-amino]-methyl}-pyridin-4-yloxy)-benzamide]	97.1%
COc1c(NC(=O)c2ccc(Cl)c(Oc3ccnc(CNCCN(C)C)c3)c2)cc(C(C)(C)C)cc1NS(C)(=O)=O [8(34), N-(5-tert-butyl-3-methanesulphonylamino-2-methoxy-phenyl)-4-chloro-3-{2-[(2-dimethylamino-ethylamino)-methyl]-pyridin-4-yloxy}-benzamide]	99.3%
COc1c(NC(=O)c2ccc(Cl)c(Oc3ccnc(CN4CCCN(C)CC4)n3)c2)cc(C(C)(C)C)cc1NS(C)(=O)=O [8(35), N-(5-tert-butyl-3-methanesulphonylamino-2-methoxy-phenyl)-4-chloro-3-[2-(4-methyl-[1,4]diazepan-1-ylmethyl)-pyrimidin-4-yloxy]-benzamide]	98.6%
COc1c(NC(=O)c2ccc(Cl)c(Oc3ccnc(CN(C)CCN(C)C)n3)c2)cc(C(C)(C)C)cc1NS(C)(=O)=O [8(36), N-(5-tert-butyl-3-methanesulphonylamino-2-methoxy-phenyl)-4-chloro-3-(2-{[(2-dimethylamino-ethyl)-methyl-amino]-methyl}-pyrimidin-4-yloxy)-benzamide]	82.6%
COc1c(NC(=O)c2ccc(Cl)c(Oc3ccnc(CNCCN(C)C)n3)c2)cc(C(C)(C)C)cc1NS(C)(=O)=O [8(37), N-(5-tert-butyl-3-methanesulphonylamino-2-methoxy-phenyl)-4-chloro-3-{2-[(2-dimethylamino-ethylamino)-methyl]-pyrimidin-4-yloxy}-benzamide]	91.3%
COc1c(NC(=O)c2ccc(Cl)c(Oc3cc(CN4CCCN(C)CC4)ncn3)c2)cc(C(C)(C)C)cc1NS(C)(=O)=O [8(38), N-(5-tert-butyl-3-methanesulphonylamino-2-methoxy-phenyl)-4-chloro-3-[6-(4-methyl-[1,4]diazepan-1-ylmethyl)-pyrimidin-4-yloxy]-benzamide]	98.8%
COc1c(NC(=O)c2ccc(Cl)c(Oc3ccnc(CN4CCCN(C)CC4)c3)c2)cc(C(C)(C)C)cc1NS(C)(=O)=O [8(39), N-(5-tert-butyl-3-methanesulphonylamino-2-methoxy-phenyl)-4-chloro-3-[2-(4-methyl-[1,4]diazepan-1-ylmethyl)-pyridin-4-yloxy]-benzamide]	98.9%
COc1c(NC(=O)c2ccc(C)c(Oc3ccnc(CC4CCN(C)CC4)n3)c2)cc(C(C)(C)C)cc1NS(C)(=O)=O [9(1), N-(5-tert-butyl-3-methanesulphonylamino-2-methoxy-phenyl)-4-methyl-3-[2-(1-methyl-piperidin-4-ylmethyl)-pyrimidin-4-yloxy]-benzamide]	99.9%
COc1c(NC(=O)c2ccc(C)c(Oc3ccnc(CC4CCN(C)CC4)c3)c2)cc(C(C)(C)C)cc1NS(C)(=O)=O [9(2), N-(5-tert-butyl-3-methanesulphonylamino-2-methoxy-phenyl)-4-methyl-3-[2-(1-methyl-piperidin-4-ylmethyl)-pyridin-4-yloxy]-benzamide]	98.5%
CCCCS(=O)(=O)Nc1cc(C(C)(C)C)cc(NC(=O)c2ccc(C)c(Oc3ccnc(CC4CCNCC4)c3)c2)c1OC [11(1), N-[3-(butan-1-sulphonylamino)-5-tert-butyl-2-methoxy-phenyl]-4-methyl-3-(2-piperidin-4-ylmethyl-pyridin-4-yloxy)-benzamide]	99.4%
CCCCC(=O)Nc1cc(C(C)(C)C)cc(NC(=O)c2ccc(C)c(Oc3ccnc(CC4CCNCC4)c3)c2)c1OC [11(2), N-(5-tert-butyl-2-methoxy-3-pentanoylamino-phenyl)-4-methyl-3-(2-piperidin-4-ylmethyl-pyridin-4-yloxy)-benzamide]	95.4%
